Measurements reported in article PMC9523446 (Frontiers in Pharmacology, 2022).
Values joined by “and” are separate entries in the source; they are usually repeats but may differ in a detail not shown here. Equal values may be shown once. “Also recorded” adds a separate entry of the source. Where a name gives a salt, the structure may show the parent alone. Read-outs that look alike come from different tables or passages of the source. Starred links: 1 amine or outer side, 2 acyl side, 3 side chain; linkers in the order of their positions; H or OH if unused. Positions of bridges follow the written chain, without caps; N, C: chain ends. Non-standard residues stand in square brackets, D forms with d. Residues, ends and D or L forms follow the SMILES beside them. Chains are numbered I, II in the order given. Actinocin(9to1) = Cc1c2oc3c(C)ccc(C(=O)[*:1])c3nc-2c(C(=O)[*:2])c(N)c1=O; NMeV = CN[C@H](C(=O)O)C(C)C; Sar = CNCC(=O)O

Legend:
[1] = target: T1, human α9α10 nAChRs (Homo sapiens, UniProt Q9GZZ6+Q9UGM1); experiment: Desensitization to 15 s pulse of ACh in calcium or barium saline; type: cell-based; settings: for peak current amplitude in response to ACh: 15 s pulse of EC50 ACh, oocytes incubated in saline only
T1 construct: expressed in transfected cells; host or cells: Xenopus laevis oocytes co-injected with α9 and α10 cRNAs (1:1)
From the text: (§1) Similar to the results presented in Figure 2, peak ACh-evoked currents from α10 nAChRs were reduced in the presence of barium compared to calcium (Figures 10A,B). […] By contrast with α10 nAChRs, α9α10 currents were much smaller in the presence of barium compared to calcium (Figures 10C,D). Furthermore, α9α10 nAChRs desensitized more slowly than α10 nAChRs.

[2] = target: T2, human α10 nAChRs (Homo sapiens, UniProt Q9GZZ6); experiment: Agonist activation of α10 nAChRs, concentration-response in oocytes; set-up: Emax: dose or concentration left out as unconfirmed
Protocol: For the assessment of ligand activity, the oocyte membranes were clamped at a holding potential of −70 mV and continuously perfused with saline (control solution). […] Ligands were applied in this manner for concentrations up to 1 µM.

[3] = target: T2, human α10 nAChRs; type: cell-based; set-up: expressed in transfected cells
[4] = target: T2, human α10 nAChRs; experiment: Desensitization to 15 s pulse of ACh in calcium or barium saline; type: cell-based; set-up: expressed in transfected cells; settings: for peak current amplitude in response to ACh: 15 s pulse of EC50 ACh, oocytes incubated in STR (20 μM)
From the text: as §1

[5] = target: T2, human α10 nAChRs; experiment: cell-based; type: cell-based; set-up: expressed in transfected cells; settings: for ACh response in presence of ligand, of control values: oocytes incubated with BRU (20 μM)
[6] = target: T2, human α10 nAChRs; experiment: Decay of ACh-evoked currents of ligand-incubated oocytes during saline perfusion (one-phase exponential plateau); settings: oocytes treated 3 days with 20 μM ligand; ACh 1 mM; calculated plateau, 95% CI in parentheses
[7] = target: human α9 nAChRs (Homo sapiens, UniProt Q9UGM1)
[8] = target: T2, human α10 nAChRs; settings: ACh 1 mM
Protocol: For the assessment of ligand activity, the oocyte membranes were clamped at a holding potential of −70 mV and continuously perfused with saline (control solution). […] Ligands were applied in this manner for concentrations up to 1 µM. […] For experiments examining the desensitization kinetics of α10-containing nAChRs, sibling oocytes were injected with 25 ng of cRNA for α10 subunits or cRNA for α9 and α10 subunits (25 ng each). Actinomycin-D (1 µM) was also used in some experiments to prevent RNA transcription and inhibit the expression of endogenous chloride channels. The oocytes were incubated in actinomycin-D for 36 h prior to assessment with TEVC electrophysiology.

[9] = target: T1, human α9α10 nAChRs; experiment: cell-based
[10] = system: X. laevis oocytes injected with water
[11] = oocytes treated 3 days with 20 μM ligand, ACh 1 mM
[12] = read-out: inhibition of ACh-evoked responses

T2 sequence (Q9GZZ6 25-450): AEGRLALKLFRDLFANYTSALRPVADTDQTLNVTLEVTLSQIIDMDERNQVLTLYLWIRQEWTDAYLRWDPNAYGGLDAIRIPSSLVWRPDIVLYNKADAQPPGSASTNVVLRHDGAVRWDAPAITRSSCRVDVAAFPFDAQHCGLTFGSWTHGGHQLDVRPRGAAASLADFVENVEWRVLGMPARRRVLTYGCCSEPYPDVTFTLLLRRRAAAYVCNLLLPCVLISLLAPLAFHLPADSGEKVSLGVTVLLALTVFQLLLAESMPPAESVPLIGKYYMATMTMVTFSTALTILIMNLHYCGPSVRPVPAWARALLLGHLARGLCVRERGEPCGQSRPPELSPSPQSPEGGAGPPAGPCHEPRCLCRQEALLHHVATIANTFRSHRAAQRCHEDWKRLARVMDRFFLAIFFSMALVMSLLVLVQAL
T1 sequence (Q9UGM1 26-479 limits assumed): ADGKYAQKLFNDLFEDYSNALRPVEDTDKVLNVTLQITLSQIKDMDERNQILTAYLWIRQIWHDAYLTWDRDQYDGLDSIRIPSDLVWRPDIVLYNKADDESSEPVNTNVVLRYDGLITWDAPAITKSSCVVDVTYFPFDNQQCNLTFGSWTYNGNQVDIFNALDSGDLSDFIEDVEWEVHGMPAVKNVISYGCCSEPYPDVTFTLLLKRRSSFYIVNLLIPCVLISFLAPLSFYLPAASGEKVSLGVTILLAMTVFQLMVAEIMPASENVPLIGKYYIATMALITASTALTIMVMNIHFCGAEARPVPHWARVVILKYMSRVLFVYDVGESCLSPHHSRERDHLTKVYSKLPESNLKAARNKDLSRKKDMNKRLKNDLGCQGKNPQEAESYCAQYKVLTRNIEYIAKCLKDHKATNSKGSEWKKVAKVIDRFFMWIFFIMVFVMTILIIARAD
T1 sequence (Q9GZZ6 25-450): as the sequence (Q9GZZ6 25-450) above
human α9 nAChRs, sequence (Q9UGM1 26-479 limits assumed): as the sequence (Q9UGM1 26-479 limits assumed) above

For `CC(=O)OCC[N+](C)(C)C` [ACh, acetylcholine], the “peak current amplitude in response to ACh” value (“peak current amplitude” below) ([1]; barium) was −31 ± 40 nA, the “peak current amplitude” value ([1]; calcium) was −484 ± 270 nA and the “current at the end of the 15 s pulse of ACh” value ([1]; barium) was −23 ± 30 nA. For the same molecule, the “current at the end of the 15 s pulse of ACh, of peak amplitude” value (“current at the end … of peak amplitude” below) ([1]; barium) was 73 ± 8%, the “current at the end of the 15 s pulse of ACh” value ([1]; calcium) was −154 ± 74 nA and the “current at the end … of peak amplitude” value ([1]; calcium) was 33 ± 4%. For the same molecule, the “Hill Slope of activation curve” value ([2]; oocytes incubated in STR (20 μM), 95% CI in parentheses) was 1.1 (0.9–1.3), the ACh-evoked current amplitude ([3]; oocytes treated 3 days with 5 mM ligand, ACh 1 mM, ± SD) was −17 ± 11 nA and the “peak current amplitude” value ([4]; barium) was −1,430 ± 1,424 nA. The “peak current amplitude” value ([4]; calcium) was −1,818 ± 1,329 nA, the “current at the end of the 15 s pulse of ACh” value ([4]; barium) was −459 ± 375 nA and the “current at the end … of peak amplitude” value ([4]; barium) was 35 ± 11%. The “current at the end of the 15 s pulse of ACh” value ([4]; calcium) was −553 ± 396 nA and the “current at the end … of peak amplitude” value ([4]; calcium) was 31 ± 6%.
In the case of `COc1cc2c(cc1OC)[C@@]13CCN4CC5=CCO[C@H]6CC(=O)N2[C@H]1[C@H]6[C@H]5C[C@H]43` [BRU, dimethoxystrychnine sulfate hydrate], the “ACh response in presence of ligand, of control values” (“ACh response in presence of ligand” for short) ([5]; ligand 100 nM perfused) is reported as 87 ± 16%, the “ACh response in presence of ligand” value ([5]; ligand 1 μM (2nd of series 100 nM through 300 μM)) is reported as 246 ± 74% and the “ACh response in presence of ligand” value ([5]; ligand 10 μM (3rd of series 100 nM through 300 μM)) is reported as 371 ± 101%. The “ACh response in presence of ligand” value ([5]; ligand 100 μM (4th of series 100 nM through 300 μM)) was 260 ± 102%, the “ACh response in presence of ligand” value ([5]; ligand 300 μM perfused) was 168 ± 73% and the “plateau to which ACh-evoked currents decay, of initial current amplitudes” value [6] was 15% and 15 (13–17) %. The “range of ACh-evoked current amplitudes” value [3, 11] was −50 to −888 nA and the ACh-evoked current amplitude ([3]; oocytes treated 3 days with 20 μM ligand, ACh 1 mM, ± SD) was −302 ± 225 nA.
`C[N+](C)(C)CCO` [choline] was tested, and the Emax ([2]; read-out: maximal response, of the calculated maximal response to ACh) was 4 ± 2% and the “ACh-evoked current amplitude before exposure to STR” value [7] was −78 ± 44 nA.
With `CN1CCC[C@H]1c1cccnc1` [nicotine, (-)-nicotine hydrogen tartrate] the agonist-evoked currents ([2]; concentrations up to 1 mM, oocytes incubated in STR (20 μM)) was “failed to evoke current responses; also recorded: failed to induce detectable currents”, the “ACh responses in the presence of ligand” value [5] was 99 ± 8% and the ACh-evoked current amplitude [3] was −6.0 ± 6.2 nA.
`Cc1c2oc3c(C)ccc(C(=O)N[C@@H]4C(=O)N[C@H](C(C)C)C(=O)N5CCC[C@H]5C(=O)N(C)CC(=O)N(C)[C@@H](C(C)C)C(=O)O[C@@H]4C)c3nc-2c(C(=O)N[C@@H]2C(=O)N[C@H](C(C)C)C(=O)N3CCC[C@H]3C(=O)N(C)CC(=O)N(C)[C@@H](C(C)C)C(=O)O[C@@H]2C)c(N)c1=O` [Actino-D, actinomycin-D] (I: T[dV]P[Sar][NMeV] / II: T[dV]P[Sar][NMeV]; ester I:1-I:C, II:1-II:C; linker I:N-II:N via Actinocin(9to1)) showed an ACh-evoked response amplitude ([8]; sibling oocytes incubated with 1 µM actinomycin-D (and STR 20 μM), barium) of −164 ± 96 nA and an ACh-evoked response amplitude ([8]; sibling oocytes incubated with 1 µM actinomycin-D (and STR 20 μM), calcium ([…])) of −186 ± 96 nA.
With `O=C1C[C@@H]2OCC=C3CN4CC[C@]56c7ccccc7N1[C@H]5[C@H]2[C@H]3C[C@H]46` [STR, strychnine] the “ACh-evoked currents after acute application, of control values” [9] was 1.0 ± 0.5%, the inhibition at 20 µM [9, 12] was about 99% and the ACh-evoked current amplitude [10] was −1.6 ± 0.7 nA. The “ACh-evoked currents after acute application, of control values” [5] was 52 ± 13%, the IC50 [5] was 20.2 µM and the “enhancement of ACh-evoked current amplitudes” value [5] was 518 ± 411%. For the same molecule, the “response to ACh after perfusion with ligand” value [5] was −294 ± 149 nA, the inhibition at 20 µM [5, 12] was about 50% and the ACh-evoked response amplitude ([8]; oocytes treated 36 h with STR (20 μM), calcium replaced with equimolar barium) was −301 ± 225 nA. The ACh-evoked response amplitude ([8]; oocytes treated 36 h with STR (20 μM), saline with calcium ([…])) was −373 ± 273 nA, the “plateau to which ACh-evoked currents decay, of initial current amplitudes” value [6] was 74% and 74 (72–76) % and the “ACh-evoked current amplitude after exposure to STR” value ([7]; subset of choline-incubated oocytes then incubated in STR (20 μM) for 24 h, ACh 100 μM) was −2.1 ± 1.2 nA. For the same molecule, the “range of ACh-evoked current amplitudes” value [3, 11] was −76 to −2,378 nA.
